“Also recorded” adds a separate entry of the source.

The subject of data set [1] is Jurkat cells. In words: In vitro long term cell survival assay in methylcellulose-based semisolid medium. On the set-up: species or system human. On the procedure: The cells were collected from the cultivation flasks, centrifuged at 1400 rpm for 5 min and diluted in the serum-free RPMI 1640 medium to a density of 37.5×10^5 cells/ml. Eighty microliters of cell suspension were portioned into 96 well plates. […] For the UV-A irradiation of samples, a home-made UV-A lamp (Sorensen UV-A lamp, Phillips Th […]/09) emitting light mainly in the region 340-410 nm was used (FIG. 1). For the blue light illumination of samples, the light from a bank of four fluorescent tubes (model 3026, Applied Photophysics, London, United Kingdom) emitting light mainly in the region 410-500 nm with a maximum around 440 nm was used (FIG. 1). Methylcellulose-based medium human MethoCult® with recombinant cytokines, (H4034, StemCell Technologies, France) was used for survival assay. […] The samples were treated according to the manufacturer's instructions and suspensions were transferred into 35 mm Petri dishes. They were incubated at 37° C. in a humidified incubator with 5% CO2.

Data set [2] concerns human T-cell lymphoma cell line, Jurkat. Briefly: In vitro cell proliferation assay (MTS) after HAL and/or 8-MOP plus light. The data set is classed as cell-based. Conditions: for Dark toxicity (MTS assay): no light. The procedure:
The human T-cell lymphoma cell line, Jurkat (ATCC number: TIB-152TM), growing in suspensions at passages 4-24 was used in the study. […] For subcultivation, the cells were diluted to a density of 3×10^5 cells/ml every second day. […] The cells were collected from the cultivation flasks, centrifuged at 1400 rpm for 5 min and diluted in the serum-free RPMI 1640 medium to a density of 37.5×10^5 cells/ml. Eighty microliters of cell suspension were portioned into 96 well plates. […] For the UV-A irradiation of samples, a home-made UV-A lamp (Sorensen UV-A lamp, Phillips Th […]/09) emitting light mainly in the region 340-410 nm was used (FIG. 1). For the blue light illumination of samples, the light from a bank of four fluorescent tubes (model 3026, Applied Photophysics, London, United Kingdom) emitting light mainly in the region 410-500 nm with a maximum around 440 nm was used (FIG. 1). […] Twenty four hours after irradiation, 20 μl of MTS (Promega Corporation, Madison, Wis.) was added to each well. Absorbance at 492 nm was measured after one hour incubation at 37° C. by means of a well plate reader (Multiskan Ex, Labsystems, Finland).
Background: Formazan colour is commonly taken as a measure of viable cells.

Data set [3] concerns Jurkat cells. Briefly: Assessment of apoptotic cells by fluorescence microscopy (Hoechst 33342 / PI). The data set is classed as cell-based, human. The procedure:
The cells were collected from the cultivation flasks, centrifuged at 1400 rpm for 5 min and diluted in the serum-free RPMI 1640 medium to a density of 37.5×10^5 cells/ml. Eighty microliters of cell suspension were portioned into 96 well plates. […] For the UV-A irradiation of samples, a home-made UV-A lamp (Sorensen UV-A lamp, Phillips Th […]/09) emitting light mainly in the region 340-410 nm was used (FIG. 1). For the blue light illumination of samples, the light from a bank of four fluorescent tubes (model 3026, Applied Photophysics, London, United Kingdom) emitting light mainly in the region 410-500 nm with a maximum around 440 nm was used (FIG. 1). Apoptotic cells were identified by fluorescence microscopy based on nuclear morphology after staining with 4.0 μg/mI Hoechst 33342 (Sigma, St. Louis, Mo.) at 37° C. for 10 min. This assay was verified in our previous experiments. […] For PI fluorescence detection, the filter combination consisted of a 540/25 nm excitation filter, a 565 nm beam splitter, and a 605/55 nm band-pass emission filter. Fluorescence images were captured by a highly light sensitive thermo-electrically cooled charge-coupled device camera […] (Hamamatsu, Japan).

The subject of data set [4] is CD4+ T lymphocytes collected from a GvHD patient. In words: Ex vivo ALA-ECP killing of patient CD4+ T lymphocytes (flow cytometry). Type of data set: cell-based, human. Conditions: particularly at a low light dose, 5-min light illumination. The procedure:
(§1) A suitable dose and incubation time of ALA was used in leukocyte samples collected from ECP patients. The dark toxicity of ALA at the concentration in question was evaluated, followed by the ALA/UVA-mediated killing efficiency before studies on the mechanism of its action (apoptosis/necrosis). The lymphocytes from patients were incubated with ALA under the optimized experimental conditions before exposure to the UVA lamp in the Therakos Photopheresis System at the same light dose as used in the ECP treatment. The cell survival of ALA dark toxicity, ALA/UVA-mediated killing efficiency and apoptosis/necrosis were measured with flow cytometry using combined labelling of CD4^+ or CD8^+ with Annexin V/PI staining.
(§2) The killing effects of 5-ALA (a porphyrin precursor) plus the UVA light irradiation on CD4^+/CD8^+ T lymphocytes collected from a Graft versus Host Disease (GvHD) patient who went to a standard photopheresis treatment was evaluated. The cells were exposed to ALA+UVA in the standard photopheresis machine, and percentage survival evaluated at various timepoints between 1 h and 20 h. The 8-MOP plus UVA used for the standard photopheresis was also included for comparison. The cell survival was measured with flow cytometry using a combined staining of CD4/CD8 antibody, Annexin-V and eFluor450.
In general terms: Flow cytometry measures light scatter and fluorescence of single cells or particles in a stream.

The next data set concerns humans. Conditions: oral ALA; normally resolves after 48 hours; cited from earlier work.
Another data set concerns rats. To be noted: cited from earlier work.
The test system of data set [5] is CD8+ T lymphocytes collected from a GvHD patient. Briefly: Ex vivo ALA-ECP killing of patient CD8+ T lymphocytes (flow cytometry). Type of data set: cell-based, human. Conditions: particularly at a low light dose, 5-min light illumination. On the procedure: as §1, §2
The test system of data set [6] is Jurkat human T-cell lymphoma cells. Briefly: ALA/UVA killing of Jurkat cells (PI staining). The data set is classed as cell-based. Conditions: 1 mM ALA for 1 hour, 10% foetal bovine serum, then UVA light exposure. On the procedure:
Optimization of experimental conditions for ALA-ECP was performed in Jurkat cells, varying ALA concentration (1 to 5 mM) and treatment time (1 to 4 hours) in the presence of 10% foetal bovine serum. The cells were then exposed to UVA for 10 min using an UV-A lamp with almost identical emission spectra to those of the UV-A lamp used in the existing commercial Therakos photopheresis system. The cell survival after the ALA/UVA treatment was measured by fluorescence microscopy with propidium iodide (PI) staining.

Data set [7] has as its system Proliferative (transformed or activated) T-cells. In words: ALA-induced PpIX production in proliferative versus resting T-cells. The data set is classed as cell-based.
In data set [8] the test system is human leukocytes from GvHD or CTLC patients. Briefly: 5-ALA dark toxicity on human leukocytes. The data set is classed as cell-based. To be noted: 10 mM 5-ALA, 17-24 hours, no light.
Protocol: The general safety of 5-ALA in absence of light-mediated activation (dark toxicity) was next evaluated. Blood samples from 10 GvHD or CTLC patients were treated with 10 mM 5-ALA at 37° C. in a 5% CO2 humidified incubator overnight (17-24 hours). Buffy coat samples from patients were directly harvested from the Therakos Photopheresis System during the standard photopheresis treatment. The cells incubated with the culture medium containing no 5-ALA were also included as a control in all individuals. The leukocytes were then labelled with antibodies for flow cytometry analysis of various subpopulations. The antibodies used were: CD45 PerCP-Cyanine5.5 for leukocytes, CD4 FITC for T helper cells, CD8 FITC for T cytotoxic cells and CD19 FITC for B-cells. The cells were also labelled with Fixable Viability Dye eFluor 450 for dead cells and Annexin V for apoptotic/dead cells. The different subpopulations of leukocytes were gated out and analyzed for cell viability. The cells that were negative for both the Fixable Viability Dye eFluor 450 and Annexin V were considered as viable cells.
For another data set, the system named is mice. Conditions: cited from earlier work.

Take `COc1c2occc2cc2ccc(=O)oc12` [8-MOP, 8-methoxypsoralen]: in the data set on Jurkat cells [1] (1.00 μM MOP/10 min UV-A), the “Number of colonies (high cell density areas formed in semisolid medium 2 weeks after treatment)” value was 0.8 ± 2.0 and the “number of experiments when colonies were formed/total number of experiments” value is recorded as 1/6. Also, the “ability to sensitise the cells to photoinactivation when UV-A lamp spectrum shifted by few nm” value in data set [2] (1.00 μM 8-MOP) is “significantly increased”. In data set [2] (1.00 μM 8-MOP, blue light), the “Effect of presence of 8-MOP on cell proliferation during HAL-based PDT with blue light” value is “did not affect cell proliferation”. The “Dark toxicity (MTS assay)” value in [2] (8-MOP up to 1.00 μM) is “no indication for dark toxicities”. Moreover, the “cell proliferation measured by MTS assay with increasing 8-MOP concentration” value in data set [2] (UV-A 5 and 10 min, absence of HAL) is “decreasing cell proliferation”. Besides, the “mode of cell death, twenty hours following treatment” value in the data set with Jurkat cells [3] (1.00 μM 8-MOP followed by UV-A) is “almost all the cells seemed to die by apoptosis”.

As for `NCC(=O)CCC(=O)O` [ALA, 5-aminolevulinic acid], the “killing of CD4+ T-cells, ALA plus UVA versus 8-MOP plus UVA” value in [4] is given as “much more effectively than 8-MOP plus UVA”. The “most common side effects” value with humans is “nausea, vomiting and a transient rise in liver enzymes”. The “toxic effects after single intravenous injection” value is on record as “No observable toxic effects” with rats (rat, in vivo, iv, 250 mg/kg) and “No observable toxic effects” in the data set with mice (mouse, in vivo, iv, 500 mg/kg). In addition, the LD50 is given as 2,500 mg/kg body weight in the data set with rats (rats, single dose of oral or intraperitoneal administration) and 2,500 mg/kg body weight in the data set with mice (mice, single dose of oral or intraperitoneal administration). The “killing of CD8+ T-cells, ALA plus UVA versus 8-MOP plus UVA” value in [5] is “much more effectively than 8-MOP plus UVA”. Besides, in [6], the Jurkat cells killed result was “More than 95%”. Also, the “ALA-induced PpIX production, proliferative versus normal resting T-cells” value in [7] is recorded as “about 15 fold”. Besides, in data set [8], the “dark cytotoxic effect on leukocytes” value is given as “no significant dark cytotoxic effect”.

On to `CCCCCCOC(=O)CCC(=O)CN` [HAL, hexyl 5-amino-4-oxopentanoate], for which the “Number of colonies (high cell density areas formed in semisolid medium 2 weeks after treatment)” value is 0 in the data set on Jurkat cells [1] (5.00 μM HAL/10 min UV-A) and 4.5 ± 5.6 in the data set on Jurkat cells [1] (7.40 μM HAL/10 s blue light). Further, in the data set with Jurkat cells [1] (7.40 μM HAL/10 s blue light), the “number of experiments when colonies were formed/total number of experiments” value is given as 4/6. Further, the “Cell proliferation, evaluated by MTS assay” value in data set [2] (HAL 4 h, 10 or 20 s blue light or 5 or 10 min UV-A) is “decrease in a concentration-dependent manner”. Also, the “Dark toxicity (MTS assay)” value in [2] (HAL up to 11.00 μM) is recorded as “no indication for dark toxicities”. Besides, the “HAL concentration sufficient to decrease cell proliferation to minimum after light exposure” value in data set [2] (UV-A 5 or 10 min) was 5.00 µM. Also, the “Cell appearance 20 hours after treatment” value is “mostly apoptotic + some alive, or; also recorded: mostly necrotic + some apoptotic*” in the data set on Jurkat cells [3] (1.55 μM HAL, 10 min UV-A, sample to sample variations); “apoptotic + alive (similar” in the data set with Jurkat cells [3] (5.00 μM HAL, 10 s UV-A); “mostly apoptotic + some alive” in the data set with Jurkat cells [3] (5.00 μM HAL, 10 s blue light); “only necrotic, no apoptotic” in the data set with Jurkat cells [3] (5.00 μM HAL, 10 min UV-A). In the data set with Jurkat cells [3] (5.00 μM HAL and 10 min UV-A irradiation), the “apoptotic bodies, twenty hours following treatment” value was “no apoptotic bodies could be seen”.

(Values after US10695371B2, “Modification of extracorporeal photopherisis technology with porphyrin precursors” (Oslo Universitetssykehus HF, priority 2014, dated 2020).)
